Results published in paper PMC10041525, “New Dual Inhibitors of Bacterial Topoisomerases with Broad-Spectrum Antibacterial Activity and In Vivo Efficacy against Vancomycin-Intermediate Staphylococcus aureus” (Journal of Medicinal Chemistry, 2023).
In brackets after ≈: the same amount, converted by molar mass. Like-named read-outs stand apart in the source and are kept apart here.

System: 100 A. baumannii strains (50 MDR, 50 non-MDR)
Assay: MIC broth microdilution at IHMA Europe, panel of 100 strains
Format: cell-based
Conditions: Acinetobacter baumannii, read-out: MIC

With Cc1[nH]c(C(=O)Nc2nc3c(N4[C@@H]5CC[C@H]4COC5)cc(C(=O)O)cc3s2)c(Cl)c1Cl [7h, 4-((1R,5S)-3-Oxa-8-azabicyclo[3.2.1]octan-8-yl)-2-(3,4-dichloro-5-methyl-1H-pyrrole-2-carboxamido)benzo[d]thiazole-6-carboxylic Acid] the MIC (A. baumannii IHMA 1769393, Lithuania 2018, Non-MDR) was 2 µg/mL (≈ 4.15 µM), the MIC (A. baumannii IHMA 1769782, Israel 2018, MDR) was 2 µg/mL (≈ 4.15 µM) and the MIC (A. baumannii IHMA 1769910, Israel 2018, Non-MDR) was 4 µg/mL (≈ 8.31 µM). It also gave an MIC (A. baumannii IHMA 1790317, Czech Republic 2018, Non-MDR) of 2 µg/mL (≈ 4.15 µM), an MIC (A. baumannii IHMA 1790916, Romania 2018, Non-MDR) of 1 µg/mL (≈ 2.08 µM) and an MIC (A. baumannii IHMA 1791877, Israel 2018, MDR) of 2 µg/mL (≈ 4.15 µM). For the same molecule, the MIC (A. baumannii IHMA 1792961, Jordan 2018, MDR) was 2 µg/mL (≈ 4.15 µM), the MIC (A. baumannii IHMA 1795669, Tunisia 2018, Non-MDR) was 1 µg/mL (≈ 2.08 µM) and the MIC (A. baumannii IHMA 1814276, Lebanon 2018, MDR) was 2 µg/mL (≈ 4.15 µM). It also gave an MIC (A. baumannii IHMA 1815198, Kuwait 2018, MDR) of 2 µg/mL (≈ 4.15 µM), an MIC (A. baumannii IHMA 1815856, Israel 2018, MDR) of 2 µg/mL (≈ 4.15 µM) and an MIC (A. baumannii IHMA 1821468, South Africa 2018, Non-MDR) of 2 µg/mL (≈ 4.15 µM). For the same molecule, the MIC (A. baumannii IHMA 1829500, Georgia 2018, Non-MDR) was 2 µg/mL (≈ 4.15 µM), the MIC (A. baumannii IHMA 1830924, United Kingdom 2018, Non-MDR) was 4 µg/mL (≈ 8.31 µM) and the MIC (A. baumannii IHMA 1849819, Kuwait 2018, MDR) was 4 µg/mL (≈ 8.31 µM). For the same molecule, the MIC (A. baumannii IHMA 1849829, Kuwait 2018, Non-MDR) was 4 µg/mL (≈ 8.31 µM), the MIC (A. baumannii IHMA 1857118, Slovenia 2018, Non-MDR) was 4 µg/mL (≈ 8.31 µM) and the MIC (A. baumannii IHMA 1863631, France 2018, Non-MDR) was 2 µg/mL (≈ 4.15 µM). For the same molecule, the MIC (A. baumannii IHMA 1870054, United States 2018, Non-MDR) was 2 µg/mL (≈ 4.15 µM), the MIC (A. baumannii IHMA 1884428, Italy 2018, Non-MDR) was 4 µg/mL (≈ 8.31 µM) and the MIC (A. baumannii IHMA 1884990, Germany 2018, Non-MDR) was 1 µg/mL (≈ 2.08 µM). The MIC (A. baumannii IHMA 1900538, Turkey 2018, Non-MDR) was 4 µg/mL (≈ 8.31 µM), the MIC (A. baumannii IHMA 1913773, Kenya 2018, Non-MDR) was 2 µg/mL (≈ 4.15 µM) and the MIC (A. baumannii IHMA 1926285, Qatar 2018, Non-MDR) was 2 µg/mL (≈ 4.15 µM). It also gave an MIC (A. baumannii IHMA 1926288, Qatar 2018, MDR) of 1 µg/mL (≈ 2.08 µM), an MIC (A. baumannii IHMA 1957343, Portugal 2019, Non-MDR) of 4 µg/mL (≈ 8.31 µM) and an MIC (A. baumannii IHMA 1963732, Turkey 2019, MDR) of 2 µg/mL (≈ 4.15 µM). For the same molecule, the MIC (A. baumannii IHMA 1967860, Spain 2019, Non-MDR) was 8 µg/mL (≈ 16.6 µM), the MIC (A. baumannii IHMA 1971673, Latvia 2019, MDR) was 2 µg/mL (≈ 4.15 µM) and the MIC (A. baumannii IHMA 1975075, Israel 2019, Non-MDR) was 2 µg/mL (≈ 4.15 µM). The MIC (A. baumannii IHMA 1977077, Kuwait 2019, Non-MDR) was 4 µg/mL (≈ 8.31 µM), the MIC (A. baumannii IHMA 1983151, Greece 2019, MDR) was 2 µg/mL (≈ 4.15 µM) and the MIC (A. baumannii IHMA 1984665, Lithuania 2019, MDR) was 2 µg/mL (≈ 4.15 µM). For the same molecule, the MIC (A. baumannii IHMA 1986678, Turkey 2019, Non-MDR) was 4 µg/mL (≈ 8.31 µM), the MIC (A. baumannii IHMA 1986738, Turkey 2019, MDR) was 2 µg/mL (≈ 4.15 µM) and the MIC (A. baumannii IHMA 1987162, Croatia 2019, MDR) was 2 µg/mL (≈ 4.15 µM). For the same molecule, the MIC (A. baumannii IHMA 1993615, Turkey 2019, MDR) was 1 µg/mL (≈ 2.08 µM), the MIC (A. baumannii IHMA 1994284, Italy 2019, MDR) was 2 µg/mL (≈ 4.15 µM) and the MIC (A. baumannii IHMA 1995161, Czech Republic 2019, Non-MDR) was 2 µg/mL (≈ 4.15 µM). It also gave an MIC (A. baumannii IHMA 1997936, Morocco 2019, Non-MDR) of 2 µg/mL (≈ 4.15 µM), an MIC (A. baumannii IHMA 1999178, Belgium 2019, Non-MDR) of 2 µg/mL (≈ 4.15 µM) and an MIC (A. baumannii IHMA 2003279, Turkey 2019, MDR) of 4 µg/mL (≈ 8.31 µM). It also gave an MIC (A. baumannii IHMA 2014367, Jordan 2019, Non-MDR) of 1 µg/mL (≈ 2.08 µM), an MIC (A. baumannii IHMA 2014931, South Africa 2019, Non-MDR) of 4 µg/mL (≈ 8.31 µM) and an MIC (A. baumannii IHMA 2019315, Romania 2019, Non-MDR) of 4 µg/mL (≈ 8.31 µM). For the same molecule, the MIC (A. baumannii IHMA 2020360, Croatia 2019, MDR) was 2 µg/mL (≈ 4.15 µM), the MIC (A. baumannii IHMA 2031511, Greece 2019, Non-MDR) was 1 µg/mL (≈ 2.08 µM) and the MIC (A. baumannii IHMA 2031524, Greece 2019, MDR) was 2 µg/mL (≈ 4.15 µM). It also gave an MIC (A. baumannii IHMA 2034657, Tunisia 2019, Non-MDR) of 4 µg/mL (≈ 8.31 µM), an MIC (A. baumannii IHMA 2035089, Serbia 2019, MDR) of 2 µg/mL (≈ 4.15 µM) and an MIC (A. baumannii IHMA 2035134, Serbia 2019, Non-MDR) of 2 µg/mL (≈ 4.15 µM). The MIC (A. baumannii IHMA 2038976, Hungary 2019, MDR) was 2 µg/mL (≈ 4.15 µM), the MIC (A. baumannii IHMA 2051503, Serbia 2019, MDR) was 2 µg/mL (≈ 4.15 µM) and the MIC (A. baumannii IHMA 2058329, Slovenia 2019, Non-MDR) was 4 µg/mL (≈ 8.31 µM). For the same molecule, the MIC (A. baumannii IHMA 2065587, France 2019, Non-MDR) was 1 µg/mL (≈ 2.08 µM), the MIC (A. baumannii IHMA 2099294, United Kingdom 2019, Non-MDR) was 2 µg/mL (≈ 4.15 µM) and the MIC (A. baumannii IHMA 2129256, Qatar 2019, Non-MDR) was 4 µg/mL (≈ 8.31 µM). It also gave an MIC (A. baumannii IHMA 2154584, Israel 2020, MDR) of 2 µg/mL (≈ 4.15 µM), an MIC (A. baumannii IHMA 2155340, Kenya 2020, MDR) of 2 µg/mL (≈ 4.15 µM) and an MIC (A. baumannii IHMA 2156634, Turkey 2020, MDR) of 2 µg/mL (≈ 4.15 µM). It also gave an MIC (A. baumannii IHMA 2156709, Turkey 2020, MDR) of 2 µg/mL (≈ 4.15 µM), an MIC (A. baumannii IHMA 2157614, Australia 2020, Non-MDR) of 4 µg/mL (≈ 8.31 µM) and an MIC (A. baumannii IHMA 2177232, Lithuania 2020, MDR) of 4 µg/mL (≈ 8.31 µM). The MIC (A. baumannii IHMA 2177489, Lithuania 2020, MDR) was 2 µg/mL (≈ 4.15 µM) and the MIC (A. baumannii IHMA 2178574, Ukraine 2020, Non-MDR) was 4 µg/mL (≈ 8.31 µM).
